Laboratory results as given in US7371396B2, “Dermatological and cosmetic compositions” (Relivia SRL, priority 2001, dated 2008).
Each block holds one compound with its values, some of them ahead of it.

How the values were obtained:
[1] = test system: patients suffering from severe disabling atopic dermatitis (AD); assay: Test in vivo with atopic dermatitis subjects (SCORAD system); design: species or system human
Method: Experiments were carried out on patients (n=20) of both sexes, of age above 18 years, suffering from severe disabling atopic dermatitis (AD) unresponsive to the current topical treatments.
All patients were subjected to complete blood count and measurements of renal and hepatic functions prior to treatment. Patients who had been systemically treated two months previously with corticoids, antibiotics, psoralenes and other immunosuppressants or with UV were excluded. Patients were supposed not to use any corticoid topically.
Material—A commercially available formulation Triderm Lenil (ICIM International srl, Gallarate, Italy) was used as such (formulation I) or with the addition of 1×10^−2 mol (0.33 g) of Furfuryl palmitate (formulation II).
Triderm Lenil ingredients: aqua, petrolatum, paraffinnum liquidum, dimethicone, laureth-9, C12-C15 alkyl benzoate, soy sterol, phenyl trimethicone, cetearyl alcohol, ribes nigrum, bisabolol, tocopheryl acetate, dimethicone copolyol, capryloyl glycine, glycyrrhetinc acid, superoxide dismutase, phytosphingosine, polyquaternium-7, sodium carbomer, hydroxypropyl guar, disodium EDTA, farnesol, sodium chloride.
Treatment—Out of 20 patients, 10 were included in the furfuryl palmitate-treated group […] and 10 in the control group (formulation I). […] Patients were divided in two groups and treated twice a day for one months either with the Furfuryl palmitate-containing cream or with the placebo cream (control group). Evaluations—The progress of the disease was monitored with the SCORAD system (Dermatology 1993; 186: 23-31) drafted by European Task Force on Atopic Dermatitis (European Society of Pediatric Dermatology, Bordeaux, September 1990) with further modification by Hanifin and Rajka, thus by monitoring 3 criteria: • A) Lesione spread: analysis of surface involvement was performed during the clinical examination by drawing the involved areas on the evaluation sheet, then calculate the proportion of involved surface area segment by segment. For example, if ¾th of the right lower limb is interested by AD, the corresponding score is of about 7/9. • B) Grading of intensity: carried out in a chosen representative area in patients with localized lesions. In patients with areas varying in severity, a representative area of mean involvement is chosen. Dryness should be evaluated in a remote area of non-inflammatory skin. The elementary lesions were classified in the following manifestation: a) Erythema b) Edema/papulation c) Oozing/crusting d) Excoriation e) Lichenification, wherein each item is scored on a scale of 0 to 3, with the total for the intensity criteria is based on a maximum of 18 • C) Subjective signs: by looking at the two most representative items concerning the quality of life of patients during the 3 previous days, i.e. pruritus and insomnia. The patient and/or one of their relatives expresses the intensity of pruritus or insomnia using a visual analog scale graded between 0 and 10.
At the beginning of the treatment, the body area affected by eczema was 69% on the average in all patients. […] At the end of the treatment, the mean scores for itching decreased from 2.3 to 0.6 and for sleep disorders from 7.9 to 1.0. only in the furfuryl palmitate-treated patients.

[2] = Nomeir et al., Drug Metab Dispos 20(2):198-204, 1992; cited from earlier work
[3] = at the end of the treatment, 10 patients in the treated group

melting point: 31 to 33 °C
Compound: CCCCCCCCCCCCCCCC(=O)OCc1ccco1 [furfuryl palmitate, Furfuryl Palmitate]
mean of the values concerning the different clinical symptoms (SCORAD) ([1]; after the first two weeks of treatment, cream with furfuryl palmitate (formulation II) twice a day, decreased from 57.0 (SEM 1.6 n=10) at start): 21.5
mean score for itching ([1]; at the end of the treatment (one month, twice a day), decreased from 2.3): 0.6
mean score for sleep disorders ([1]; at the end of the treatment (one month, twice a day), decreased from 7.9): 1.0
number of treated patients with significant improvements of all the considered parameters [1, 3]: 8
treated patients with improvement limited to skin scaling [1, 3]: two of them only showed improvements concerning skin scaling
body area affected by eczema ([1]; reached during treatment, twice a day for one month, 69% on the average in all patients at the beginning): 27%

Compound: O=Cc1ccco1 [furfural]
toxicity compared with furfuryl alcohol [2]: at least twice as toxic as the furfuryl alcohol
